In paper PMC9233054 (Pharmaceutical development and technology, 2022):
≈ marks a conversion by molar mass, not a printed value.

What was measured:
physchem = details: water, thermodynamic from solid
[1] = assay type: physicochemical; details: 1:1 cholecalciferol:HPBCD; calculated with theoretic S0
[2] = HPBCD 0 mM (control, D.I. H2O), S0; ref Hamilton 2015; cited from earlier work

C=C1CC[C@H](O)C/C1=C/C=C1\CCC[C@]2(C)[C@@H]([C@H](C)CCCC(C)C)CC[C@@H]12 [cholecalciferol]
solubility at 3 days (physchem): 1.6 µM (≈ 0.615 µg/mL)
stability constant K1:1 [1]: 71900 mM⁻¹
Solubility increase ratio (S/S0) (Phase solubility study; HPBCD 0 mM (control, D.I. H2O)): 1
Solubility increase ratio (S/S0) (Phase solubility study; HPBCD 10 mM): 5.92×10^5
Solubility increase ratio (S/S0) (Phase solubility study; HPBCD 40 mM): 1.42×10^7
Solubility increase ratio (S/S0) (Phase solubility study; HPBCD 50 mM): 2.29×10^7
Solubility increase ratio (S/S0) (Phase solubility study; HPBCD 70 mM): 4.56×10^7
Solubility increase ratio (S/S0) (Phase solubility study; HPBCD 100 mM): 9.30×10^7
Solubility increase ratio (S/S0) (Phase solubility study; HPBCD 120 mM): 1.11×10^8
Solubility increase ratio (S/S0) (Phase solubility study; HPBCD 150 mM): 1.90×10^8
Solubility increase ratio (S/S0) (Phase solubility study; HPBCD 170 mM): 2.31×10^8
Solubility increase ratio (S/S0) (Phase solubility study; HPBCD 200 mM): 3.29×10^8
solubility increase ratio (Phase solubility study; different HPBCD molarities (Table 1)): enhanced by five or more orders of magnitude
Saturated concentration of vitamin D3 in HPBCD solution (S) [2]: 3.38×10^−8 (S0) ([Hamilton 2015]) mM
